Assay results taken from US9266924B2, “Cyclopentapeptide derivatives and uses thereof” (TECHNISCHE UNIVERSITÄT MÜNCHEN, priority 2010, dated 2016).
Read-outs that look alike come from different tables or passages of the source. Where a SMILES comes first, the peptide text is derived from it. Side-chain parts run from the residue outwards. [ ]: non-standard residue; d: D form. The star is where a group is joined. DOTA(Ga) = O=C1CN2CCN3CCN(CC(=O)*)CCN(CC2)CC(=O)[O][Ga]([O]1)[O]C(=O)C3; DOTA(In) = O=C1CN2CCN3CCN(CC(=O)*)CCN(CC2)CC(=O)[O][In]([O]1)[O]C(=O)C3; DOTA = O=C(O)CN1CCN(CC(=O)O)CCN(CC(=O)*)CCN(CC(=O)O)CC1; 2Nal = N[C@@H](Cc1ccc2ccccc2c1)C(=O)O; dNMeOrn = CN[C@H](CCCN)C(=O)O; 4Abz = Nc1ccc(C(=O)O)cc1; AEEA = NCCOCCOCC(=O)O; Ava = NCCCCC(=O)O; βAla = NCCC(=O)O

Target: T1, human-CXCR4 (Homo sapiens, UniProt P61073)
T1 construct: tested first at Jurkat cells that endogenously express the CXCR4 receptor; endogenous in cells; host or cells: Jurkat cells (whole cells in suspension)
Assay: Competition binding assay on Jurkat cells with 125I-CPCR4 as radiotracer
Description: For receptor binding assays cells may be resuspended in PBS/0.2% BSA. A total of 200 μl of the suspension containing 400,000 Jurkat cells may be incubated with 25 μl of the tracer solution (containing 3.1 kBq, approx. 0.1 nM) and 25 μl of the diluent or the competitor at different concentrations. […] After shaking for 2 h at room temperature, the incubation may be terminated by centrifugation at 1300 rpm for 5 min, Cell pellets may be washed once with cold PBS followed by a second centrifugation step. Cell bound radioactivity may be determined by using a gamma counter. Experiments may be repeated 2-3 times in triplicates. IC50 values of the compounds may be calculated by nonlinear regression using GraphPad Prism (GraphPad Prism 4.0 Software, Inc., San Diego, Calif., USA). Each data point may be the average of three determinations.
Cells were resuspended in 0.2% PBS/0.2% BSA. A total of 200 μL of the suspension containing 2×10^6 Jurkat cells/ml or 400000 cell/200 μl were incubated with 25 μL of the tracer solution (containing 100,000 cpm, approx. 0.1 nM) and 25 μL of competitor dissolved in ultra pure H2O or, if necessary, up to 20% DMSO at different concentrations. The tracer concentration was varied from 5 to 500 pM.
After 2 h at room temperature, the incubation was terminated by centrifugation at 2000 rpm for 5 min. Cell pellets were washed once with 400 μL cold PBS. Cell bound radioactivity was determined by using a gamma counter. Experiments were repeated three times in triplicates. IC50 values of the peptides were calculated by nonlinear regression using GraphPad Prism (GraphPad Prism 4.0 Software, San Diego, Calif., USA).
The cell concentration was determined with a Casy cell counter (500 cell suspension in 10 ml Casy solution (Innovartis AG, Casy technology). The desired cell suspension volume was transferred into an Eppendorf tube, centrifuged, the supernatant was discarded and the pellet was resuspended in 20 ml 0.2% PBS-BSA-buffer.
Subsequently, the tubes were placed on a shaker for 2 h (200 mot/min). Thereafter, the tubes were centrifuged for 5 min at 2000 rpm and the supernatant carefully removed. The pellets were washed with 400 μl PBS and the tubes were again centrifuged for 5 min at 2000 rpm. After the supernatant was carefully removed, the tubes were measured in a gamma counter. All data were analyzed with a suitable software package, i.e. GraphPad Prism 4 with the following parameters: Equation: Sigmoidal dose-response, Y=Bottom+(Top−Bottom)/(1+10^((Log EC50−X))); X is the logarithm of concentration; Y is the response; Y starts at bottom and goes to top with a sigmoid shape.

[1] = read-out: IC50 [nM] (Binding Data)
[2] = Jurkat cells, 125I-CPCR4 tracer, 2 h at room temperature, read-out: IC50 [nM] (Binding Data)

T1 sequence (P61073 whole entry): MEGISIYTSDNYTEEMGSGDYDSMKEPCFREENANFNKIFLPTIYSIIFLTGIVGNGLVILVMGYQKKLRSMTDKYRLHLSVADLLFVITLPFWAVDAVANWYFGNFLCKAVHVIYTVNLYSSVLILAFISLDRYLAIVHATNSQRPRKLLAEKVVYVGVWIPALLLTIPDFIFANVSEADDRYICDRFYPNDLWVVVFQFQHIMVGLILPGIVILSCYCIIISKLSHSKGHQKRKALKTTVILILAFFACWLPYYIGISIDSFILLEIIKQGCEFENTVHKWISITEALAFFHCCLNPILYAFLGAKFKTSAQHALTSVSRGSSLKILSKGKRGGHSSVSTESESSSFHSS

## CN1C(=O)[C@@H](Cc2ccc(O)cc2)NC(=O)CNC(=O)[C@H](Cc2ccc3ccccc3c2)NC(=O)[C@H](CCCNC(=N)N)NC(=O)[C@H]1CCCNC(=O)c1ccc(CNC(=O)CN2CCN(CC(=O)O)CCN(CC(=O)O)CCN(CC(=O)O)CC2)cc1 (single isomer, unassigned) [Compound 8, yorn′(AMBS, DOTA, In)RNalG]
[1]
  IC50: 44.9 ± 10.4 nM

## CN1C(=O)[C@@H](Cc2ccc(O)cc2)NC(=O)CNC(=O)[C@H](Cc2ccc3ccccc3c2)NC(=O)[C@H](CCCNC(=N)N)NC(=O)[C@H]1CCCNC(=O)c1ccc(CNC(=O)CN2CCN(CC(=O)O)CCN(CC(=O)O)CCN(CC(=O)O)CC2)cc1 (single isomer, unassigned) [Compound 9, yorn′(AMBS, DOTA, Ga)RNalG]
IC50 (Exemplary Binding Study A), Jurkat cells, 125I-CPCR4 tracer, n=4
  IC50: 4.78 ± 0.73 nM
IC50 [nM] (Binding Data), Jurkat cells, 125I-CPCR4 tracer, 2 h at room temperature
  IC50: 7 ± 4.25 nM

## CN1C(=O)[C@@H](Cc2ccc(O)cc2)NC(=O)CNC(=O)[C@H](Cc2ccc3ccccc3c2)NC(=O)[C@H](CCCNC(=N)N)NC(=O)[C@H]1CCCNC(=O)c1ccc(NC(=O)CN2CCN(CC(=O)O)CCN(CC(=O)O)CCN(CC(=O)O)CC2)cc1 (single isomer, unassigned) [Compound 13, yorn′(ABS, DOTA, Ga)RNalG]
[2]
  IC50: 11.5 ± 4.4 nM

## CN1C(=O)[C@@H](Cc2ccc(O)cc2)NC(=O)CNC(=O)[C@H](Cc2ccc3ccccc3c2)NC(=O)[C@H](CCCNC(=N)N)NC(=O)[C@H]1CCCNC(=O)c1ccc(NC(=O)CCNC(=O)CN2CCN(CC(=O)O)CCN(CC(=O)O)CCN(CC(=O)O)CC2)cc1 [Compound 1, yorn′(ABS, betaAla, DOTA)RNalG] (cyclo([dY][dNMeOrn]([4Abz-βAla-DOTA])R[2Nal]G))
[2]
  IC50: 37.6 ± 14.7 nM

## CN1C(=O)[C@@H](Cc2ccc(O)cc2)NC(=O)CNC(=O)[C@H](Cc2ccc3ccccc3c2)NC(=O)[C@H](CCCNC(=N)N)NC(=O)[C@H]1CCCNC(=O)c1ccc(NC(=O)CNC(=O)CN2CCN(CC(=O)O)CCN(CC(=O)O)CCN(CC(=O)O)CC2)cc1 [Compound 10, yorn′(ABS, G, DOTA)RNalG]
[2]
  IC50: 88.8 ± 18.4 nM

## CN1C(=O)[C@@H](Cc2ccc(O)cc2)NC(=O)CNC(=O)[C@H](Cc2ccc3ccccc3c2)NC(=O)[C@H](CCCNC(=N)N)NC(=O)[C@H]1CCCNC(=O)c1ccc(NC(=O)CCCCCNC(=O)CN2CCN(CC(=O)O)CCN(CC(=O)O)CCN(CC(=O)O)CC2)cc1 [Compound 14, yorn′(ABS, Ahx, DOTA)RNalG]
[1]
  IC50: > 1000 nM

## CN1C(=O)[C@@H](Cc2ccc(O)cc2)NC(=O)CNC(=O)[C@H](Cc2ccc3ccccc3c2)NC(=O)[C@H](CCCNC(=N)N)NC(=O)[C@H]1CCCNC(=O)c1ccc(NC(=O)CN2CCN(CC(=O)O)CCN(CC(=O)O)CCN(CC(=O)O)CC2)cc1 [Compound 15, yorn′(ABS, DOTA)RNalG]
[2]
  IC50: 335 nM

## CN1C(=O)[C@@H](Cc2ccc(O)cc2)NC(=O)CNC(=O)[C@H](Cc2ccc3ccccc3c2)NC(=O)[C@H](CCCNC(=N)N)NC(=O)[C@H]1CCCNC(=O)c1ccc(NC(=O)CN2CCN3CCN4CCN(CC2)CC(=O)[O][In]([O]C(=O)C3)[O]C(=O)C4)cc1 [Compound 16, yorn′(ABS, DOTA, In)RNalG] (cyclo([2Nal]G[dY][dNMeOrn]([4Abz-DOTA(In)])R))
[2]
  IC50: 105 nM

## CN1C(=O)[C@@H](Cc2ccc(O)cc2)NC(=O)CNC(=O)[C@H](Cc2ccc3ccccc3c2)NC(=O)[C@H](CCCNC(=N)N)NC(=O)[C@H]1CCCNC(=O)c1ccc(NC(=O)CN2CCN3CCN4CCN(CC2)CC(=O)[O][Ga]([O]C(=O)C3)[O]C(=O)C4)cc1 [Compound 17, yorn′(ABS, DOTA, Ga)RNalG] (cyclo([2Nal]G[dY][dNMeOrn]([4Abz-DOTA(Ga)])R))
[2]
  IC50: 11.5 ± 4.4 nM

## CN1C(=O)[C@@H](Cc2ccc(O)cc2)NC(=O)CNC(=O)[C@H](Cc2ccc3ccccc3c2)NC(=O)[C@H](CCCNC(=N)N)NC(=O)[C@H]1CCCNC(=O)c1ccc(NC(=O)CCCCNC(=O)CN2CCN(CC(=O)O)CCN(CC(=O)O)CCN(CC(=O)O)CC2)cc1 [Compound 18, yorn′(ABS, AVS, DOTA)RNalG]
[2]
  IC50: 121 ± 17 nM

## CN1C(=O)[C@@H](Cc2ccc(O)cc2)NC(=O)CNC(=O)[C@H](Cc2ccc3ccccc3c2)NC(=O)[C@H](CCCNC(=N)N)NC(=O)[C@H]1CCCNC(=O)CN1CCN2CCN3CCN(CC1)CC(=O)[O][In]([O]C(=O)C2)[O]C(=O)C3 [Compound 20, yorn′(DOTA, In)RNalG] (cyclo([2Nal]G[dY][dNMeOrn](DOTA(In))R))
[2]
  IC50: > 1000 nM

## CN1C(=O)[C@@H](Cc2ccc(O)cc2)NC(=O)CNC(=O)[C@H](Cc2ccc3ccccc3c2)NC(=O)[C@H](CCCNC(=N)N)NC(=O)[C@H]1CCCNC(=O)CN1CCN2CCN3CCN(CC1)CC(=O)[O][Ga]([O]C(=O)C2)[O]C(=O)C3 [Compound 21, yorn′(DOTA, Ga)RNalG] (cyclo([2Nal]G[dY][dNMeOrn](DOTA(Ga))R))
[2]
  IC50: 289 nM

## CN1C(=O)[C@@H](Cc2ccc(O)cc2)NC(=O)CNC(=O)[C@H](Cc2ccc3ccccc3c2)NC(=O)[C@H](CCCNC(=N)N)NC(=O)[C@H]1CCCNC(=O)CCCCNC(=O)CCCCNC(=O)CN1CCN2CCN3CCN(CC1)CC(=O)[O][In]([O]C(=O)C2)[O]C(=O)C3 [Compound 23, yorn′(AVS, AVS, DOTA, In)RNalG] (cyclo([2Nal]G[dY][dNMeOrn]([Ava-Ava-DOTA(In)])R))
[2]
  IC50: 123 ± 25 nM

## CN1C(=O)[C@@H](Cc2ccc(O)cc2)NC(=O)CNC(=O)[C@H](Cc2ccc3ccccc3c2)NC(=O)[C@H](CCCNC(=N)N)NC(=O)[C@H]1CCCNC(=O)CCCCNC(=O)CCCCNC(=O)CN1CCN2CCN3CCN(CC1)CC(=O)[O][Ga]([O]C(=O)C2)[O]C(=O)C3 [Compound 24, yorn′(AVS, AVS, DOTA, Ga)RNalG] (cyclo([2Nal]G[dY][dNMeOrn]([Ava-Ava-DOTA(Ga)])R))
[2]
  IC50: 89.7 ± 18.3 nM

## CN1C(=O)[C@@H](Cc2ccc(O)cc2)NC(=O)CNC(=O)[C@H](Cc2ccc3ccccc3c2)NC(=O)[C@H](CCCNC(=N)N)NC(=O)[C@H]1CCCNC(=O)CNC(=O)COCCOCCNC(=O)CN1CCN2CCN3CCN(CC1)CC(=O)[O][In]([O]C(=O)C2)[O]C(=O)C3 [Compound 26, yorn′(G, Trigas, DOTA, In)RNalG] (cyclo([2Nal]G[dY][dNMeOrn]([Gly-AEEA-DOTA(In)])R))
[2]
  IC50: 457 nM

## yorn′(ABS, betaAla, DOTA, In)RNalG [Compound 4]
[2]
  IC50: 30.4 ± 3.68 nM
